The numbers were not newly measured in patent US20240285640A1, “COMBINATION THERAPY FOR TREATING PIK3CA-MUTATED CANCER” (ADLAI NORTYE BIOPHARMA CO., LTD., priority 2020, published 2024), which cites them from elsewhere.

One data set has as its system advanced solid tumors. Particulars: phase I FIH, a variety of advanced solid tumors.
The test system of data set [1] is immunosuppressive cells in the tumor microenvironment. The following applies: preclinical studies; by inhibiting the PGE2/EP-4 signaling pathway.
In a further data set the test system is colorectal cancer. The following applies: combined with radiotherapy and chemotherapy; Wyrwicz et al., ESMO2019.
The test system of data set [2] is breast cancer caused by PI3K/PIK3CA mutations. The following applies: patients; Campone M et al. 2018.

Structures are written as SMILES.

Take `C[C@H](NC(=O)c1c(C(F)F)nn(C)c1Oc1cccc(C(F)(F)F)c1)c1ccc(C(=O)O)cc1` [AN0025]: the “clinical effect as single drug” value with advanced solid tumors is on record as “certain single-drug effect”. Also, the “reduction of immunosuppressive cells in the tumor microenvironment” value in data set [1] is reported as “effectively reduce”. In addition, the clinical efficacy entry with colorectal cancer was “strong clinical efficacy”.

As for `Nc1cc(C(F)(F)F)c(-c2cc(N3CCOCC3)nc(N3CCOCC3)n2)cn1` [AN2025, Buparlisib], in data set [2], the clinical efficacy result was “effective”.
